Tested on: 317291-083-R-J1-PDC complex spheroids, viability
Assay: Anticancer human tumor 317291-083-R-J1-PDC patient-derived soft tissue sarcoma cell line growth inhibition [GQUAD]
Details: for IC50: curve of first compound; for viability, T/C: stronger effect = lower value
Outline: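 Tumor cells were grown as complex spheroids with HUVEC endothelial cells and mesenchymal stem cells as stroma. G-quadruplex stabilizers were combined with targeted agents over half-log dilutions from near the clinical Cmax, or from 10 microM.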

[1] = second compound 0.0316 µM, first compound 0.0316 µM
[2] = second compound 0.0316 µM, first compound 0.1 µM
[3] = second compound 0.0316 µM, first compound 0.316 µM
[4] = second compound 0.0316 µM, first compound 1 µM
[5] = second compound 0.0316 µM, first compound 3.16 µM
[6] = second compound 0.0316 µM, first compound 10 µM
[7] = second compound 0.1 µM, first compound 0.0316 µM
[8] = second compound 0.1 µM, first compound 0.1 µM
[9] = second compound 0.1 µM, first compound 0.316 µM
[10] = second compound 0.1 µM, first compound 1 µM
[11] = second compound 0.1 µM, first compound 3.16 µM
[12] = second compound 0.1 µM, first compound 10 µM
[13] = second compound 0.316 µM, first compound 0.0316 µM
[14] = second compound 0.316 µM, first compound 0.1 µM
[15] = second compound 0.316 µM, first compound 0.316 µM
[16] = second compound 0.316 µM, first compound 1 µM
[17] = second compound 0.316 µM, first compound 3.16 µM
[18] = second compound 0.316 µM, first compound 10 µM
[19] = second compound 1 µM, first compound 0.0316 µM
[20] = second compound 1 µM, first compound 0.1 µM
[21] = second compound 1 µM, first compound 0.316 µM
[22] = second compound 1 µM, first compound 1 µM
[23] = second compound 1 µM, first compound 3.16 µM
[24] = second compound 1 µM, first compound 10 µM
[25] = second compound 3.16 µM, first compound 0.0316 µM
[26] = second compound 3.16 µM, first compound 0.1 µM
[27] = second compound 3.16 µM, first compound 0.316 µM
[28] = second compound 3.16 µM, first compound 1 µM
[29] = second compound 3.16 µM, first compound 3.16 µM
[30] = second compound 3.16 µM, first compound 10 µM
[31] = second compound 10 µM, first compound 0.0316 µM
[32] = second compound 10 µM, first compound 0.1 µM
[33] = second compound 10 µM, first compound 0.316 µM
[34] = second compound 10 µM, first compound 1 µM
[35] = second compound 10 µM, first compound 3.16 µM
[36] = second compound 10 µM, first compound 10 µM
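Also: spheroids exposed to compounds for one week before readout.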
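For viability, T/C in this document: percent viability relative to DMSO vehicle wells taken as 100%.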

## CC(=O)O[C@H]1C(=O)[C@@]2(C)[C@H]([C@H](OC(=O)c3ccccc3)[C@]3(O)C[C@H](OC(=O)[C@H](O)[C@@H](NC(=O)c4ccccc4)c4ccccc4)C(C)=C1C3(C)C)[C@]1(OC(C)=O)CO[C@@H]1C[C@@H]2O + Cc1cnc(CNC(=O)c2c(=O)c3ccc(N4CCCN(C)CC4)nc3n3c2sc2ccccc23)cn1
Second compound 0.0316 µM
  IC50: < 31.6 nM
Second compound 0.1 µM
  IC50: < 31.6 nM
Second compound 0.316 µM
  IC50: < 31.6 nM
Second compound 1 µM
  IC50: < 31.6 nM
Second compound 3.16 µM
  IC50: < 31.6 nM
Second compound 10 µM
  IC50: < 31.6 nM
[1]
  viability, T/C: 29.2%
[2]
  viability, T/C: 14.9%
[3]
  viability, T/C: 8.69%
[4]
  viability, T/C: 9.72%
[5]
  viability, T/C: 11.3%
[6]
  viability, T/C: 9.08%
[7]
  viability, T/C: 25.4%
[8]
  viability, T/C: 8.37%
[9]
  viability, T/C: 11.1%
[10]
  viability, T/C: 8.92%
[11]
  viability, T/C: 10%
[12]
  viability, T/C: 10.2%
[13]
  viability, T/C: 17.5%
[14]
  viability, T/C: 12.3%
[15]
  viability, T/C: 8.21%
[16]
  viability, T/C: 9.2%
[17]
  viability, T/C: 7.36%
[18]
  viability, T/C: 8.93%
[19]
  viability, T/C: 17.8%
[20]
  viability, T/C: 10.5%
[21]
  viability, T/C: 8.43%
[22]
  viability, T/C: 11.4%
[23]
  viability, T/C: 8.77%
[24]
  viability, T/C: 9.02%
[25]
  viability, T/C: 14.3%
[26]
  viability, T/C: 7.98%
[27]
  viability, T/C: 11.2%
[28]
  viability, T/C: 5.02%
[29]
  viability, T/C: 14.6%
[30]
  viability, T/C: 5.59%
[31]
  viability, T/C: 0.22%
[32]
  viability, T/C: 11.5%
[33]
  viability, T/C: 7.59%
[34]
  viability, T/C: 1.49%
[35]
  viability, T/C: 0.95%
[36]
  viability, T/C: 0.58%

## Cc1cccc(N(C)C(=O)C2C(O)CCN2c2nc(C)cc(C(F)(F)F)c2C#N)c1 (stereo not drawn) + Cc1cnc(CNC(=O)c2c(=O)c3ccc(N4CCCN(C)CC4)nc3n3c2sc2ccccc23)cn1
Second compound 0.0316 µM
  IC50: > 10000 nM
Second compound 0.1 µM
  IC50: > 10000 nM
Second compound 0.316 µM
  IC50: 4450 nM
Second compound 1 µM
  IC50: < 31.6 nM
Second compound 3.16 µM
  IC50: < 31.6 nM
Second compound 10 µM
  IC50: < 31.6 nM
[1]
  viability, T/C: 118%
[2]
  viability, T/C: 81.9%
[3]
  viability, T/C: 89.3%
[4]
  viability, T/C: 84.5%
[5]
  viability, T/C: 85.2%
[6]
  viability, T/C: 80.2%
[7]
  viability, T/C: 78.7%
[8]
  viability, T/C: 58.7%
[9]
  viability, T/C: 62.3%
[10]
  viability, T/C: 74%
[11]
  viability, T/C: 56%
[12]
  viability, T/C: 61.2%
[13]
  viability, T/C: 41.6%
[14]
  viability, T/C: 83.8%
[15]
  viability, T/C: 48%
[16]
  viability, T/C: 43.2%
[17]
  viability, T/C: 64%
[18]
  viability, T/C: 35.5%
[19]
  viability, T/C: 38.2%
[20]
  viability, T/C: 29.7%
[21]
  viability, T/C: 37.7%
[22]
  viability, T/C: 28.5%
[23]
  viability, T/C: 37.9%
[24]
  viability, T/C: 30.1%
[25]
  viability, T/C: 25.4%
[26]
  viability, T/C: 22.3%
[27]
  viability, T/C: 16.1%
[28]
  viability, T/C: 18.2%
[29]
  viability, T/C: 28.9%
[30]
  viability, T/C: 33.5%
[31]
  viability, T/C: 33.2%
[32]
  viability, T/C: 35.5%
[33]
  viability, T/C: 24.4%
[34]
  viability, T/C: 42.2%
[35]
  viability, T/C: 28.8%
[36]
  viability, T/C: 52.6%

## C#Cc1c(F)ccc2cc(O)cc(-c3ncc4c(N5CC6CCC(C5)N6)nc(OCC56CCCN5CC(F)C6)nc4c3F)c12 (stereo not drawn) + Cc1cnc(CNC(=O)c2c(=O)c3ccc(N4CCCN(C)CC4)nc3n3c2sc2ccccc23)cn1
Second compound 0.0316 µM
  IC50: > 10000 nM
Second compound 0.1 µM
  IC50: > 10000 nM
Second compound 0.316 µM
  IC50: < 31.6 nM
Second compound 1 µM
  IC50: < 31.6 nM
Second compound 3.16 µM
  IC50: < 31.6 nM
Second compound 10 µM
  IC50: < 31.6 nM
[1]
  viability, T/C: 107%
[2]
  viability, T/C: 104%
[3]
  viability, T/C: 99.9%
[4]
  viability, T/C: 105%
[5]
  viability, T/C: 90.6%
[6]
  viability, T/C: 66.5%
[7]
  viability, T/C: 89%
[8]
  viability, T/C: 74.4%
[9]
  viability, T/C: 57.7%
[10]
  viability, T/C: 87.2%
[11]
  viability, T/C: 76%
[12]
  viability, T/C: 80.9%
[13]
  viability, T/C: 45.3%
[14]
  viability, T/C: 52.1%
[15]
  viability, T/C: 53.3%
[16]
  viability, T/C: 36.7%
[17]
  viability, T/C: 51.7%
[18]
  viability, T/C: 51.8%
[19]
  viability, T/C: 31.4%
[20]
  viability, T/C: 36.5%
[21]
  viability, T/C: 38.9%
[22]
  viability, T/C: 24.8%
[23]
  viability, T/C: 27.4%
[24]
  viability, T/C: 21%
[25]
  viability, T/C: 14.7%
[26]
  viability, T/C: 18.3%
[27]
  viability, T/C: 31.5%
[28]
  viability, T/C: 14.1%
[29]
  viability, T/C: 22.6%
[30]
  viability, T/C: 19.1%
[31]
  viability, T/C: 38.2%
[32]
  viability, T/C: 22.9%
[33]
  viability, T/C: 10.5%
[34]
  viability, T/C: 13.7%
[35]
  viability, T/C: 11.1%
[36]
  viability, T/C: 3.98%

## CCCS(=O)(=O)Nc1ccc(F)c(C(=O)c2c[nH]c3ncc(-c4ccc(Cl)cc4)cc23)c1F + Cc1[nH]c2ccc(F)cc2c1-c1nc2c3cccnc3c3ncccc3c2[nH]1
Second compound 0.0316 µM
  IC50: 2610 nM
Second compound 0.1 µM
  IC50: 2610 nM
Second compound 0.316 µM
  IC50: 1760 nM
Second compound 1 µM
  IC50: 343 nM
Second compound 3.16 µM
  IC50: < 31.6 nM
Second compound 10 µM
  IC50: < 31.6 nM
[1]
  viability, T/C: 110%
[2]
  viability, T/C: 103%
[3]
  viability, T/C: 95.6%
[4]
  viability, T/C: 89.2%
[5]
  viability, T/C: 41.7%
[6]
  viability, T/C: 14.3%
[7]
  viability, T/C: 95.5%
[8]
  viability, T/C: 88.3%
[9]
  viability, T/C: 83.5%
[10]
  viability, T/C: 94.3%
[11]
  viability, T/C: 41.9%
[12]
  viability, T/C: 14%
[13]
  viability, T/C: 73.5%
[14]
  viability, T/C: 72.5%
[15]
  viability, T/C: 67.1%
[16]
  viability, T/C: 67.8%
[17]
  viability, T/C: 31.7%
[18]
  viability, T/C: 10.3%
[19]
  viability, T/C: 62.1%
[20]
  viability, T/C: 61%
[21]
  viability, T/C: 41.5%
[22]
  viability, T/C: 41.6%
[23]
  viability, T/C: 37.7%
[24]
  viability, T/C: 11.3%
[25]
  viability, T/C: 46%
[26]
  viability, T/C: 26.5%
[27]
  viability, T/C: 30.2%
[28]
  viability, T/C: 19.9%
[29]
  viability, T/C: 15.9%
[30]
  viability, T/C: 5.4%
[31]
  viability, T/C: 40.7%
[32]
  viability, T/C: 47.5%
[33]
  viability, T/C: 42.4%
[34]
  viability, T/C: 49.3%
[35]
  viability, T/C: 25.3%
[36]
  viability, T/C: 6.95%
